{"source": "patent US20170128389A1", "about": "“Paediatric Compositions For Treating Multiple Sclerosis” (Novartis AG, priority 2008, published 2017)", "key": {"[1]": {"test_system": "patients with relapsing multiple sclerosis (MS)", "test": "6-month, placebo-controlled trial of oral FTY720 in 281 patients with relapsing MS", "type": "in vivo, human", "details": "oral 1.25 or 5.0 mg once-daily, 6 months"}, "[2]": {"test_system": "patients with relapsing multiple sclerosis (MS)", "test": "Hamburg Quality of Life Questionnaire in MS (HAQUAMS) scores, core 6-month study and extension", "type": "in vivo, human", "experimental": "Hamburg Quality of Life Questionnaire in MS (HAQUAMS) scores were recorded at baseline, month 3 (M3), and M6 during a core 6-month study, and M12 and M24 during an extension of the core study. The HAQUAMS consists of 38 items, 28 of which contribute to five sub-domains. Domain scores range from 1 to 5, with lower scores indicating improved HRQL. A total score was generated by averaging the five sub-domain scores."}, "[3]": {"test_system": "lymphocyte counts / tolerability in adolescents", "test": "open-label, single-dose 28-day pharmacokinetic and safety/tolerability study in pediatric patients", "type": "in vivo, human", "experimental": "An open-label, single-dose 28-day pharmacokinetic and safety/tolerability study of FTY720 in pediatric is performed (8 patients aged 11-17 years, 5 patients aged 8-10 years and 5 patients aged 1-5 years). The contents of 0.5 mg capsules is dispersed in water and administered as an oral solution at a dose of 0.07 mg/kg to a maximum dose of 5 mg. The dose is administered by study personnel either directly from the glass mixing vial or with an oral syringe followed by drinking 2 water-rinse cycles of the vial or syringe and an additional 50-200 mL of water.\nBlood samples are collected for 28 days postdose and analyzed for fingolimod and fingolimod-phosphate blood concentrations by validated liquid chromatography methods with tandem mass spectrometry. Standard noncompartmental pharmacokinetic parameters are derived. Absolute lymphocyte counts are measured over 28 days to characterize the effect of FTY720 on lymphocyte decrease and recovery. Heart rate is recorded frequently for 24 hours postdose.\nSafety and tolerability assessments includes information on adverse events, body height and weight, supine systolic and diastolic blood pressure and radial pulse rate; standard 12-lead electrocardiograms (ECGs) interpreted at eResearchTechnology, Inc (Philadelphia, Pa., USA); standard hematology, biochemistry, and urinalysis parameters; screens for Hepatitis B surface antigen (HBsAg), Hepatitis C antibodies, and HIV; and pregnancy tests."}, "[4]": {"test_system": "patients with moderate asthma", "test": "randomized, double-blind, placebo-controlled ascending multiple oral dose study in patients with moderate asthma", "type": "in vivo, human", "details": "0.5, 1.25 or 2.5 mg, 10 days", "experimental": "A randomized, double-blind, placebo-controlled, parallel, time-lagged, ascending, multiple oral dose study, is performed in patients with moderate asthma: 36 patients in 3 cohorts (12 patients per cohort). In each cohort, patients are randomized between the FTY720 group (9 patients) and placebo (3 patients)\nCohort 1: FTY720 0.5 mg or placebo\nCohort 2: FTY720 1.25 mg or placebo\nCohort 3: FTY720 2.5 mg or placebo\nDuration of treatment: 10 days.\nPatients continue to take their standard daily dose of long-acting β2 agonist and inhaled corticosteroid throughout the study uninterrupted.\nPulmonary function test (FEV1, FEF25-75): is performed at 12-hour profile on Day 1 (pre-dose, 1, 2, 3, 4, 5, 6, and 12 hr post dose), 6-hour profile at baseline (Day −1) and on Day 10. An additional PFT is done 6 hours post dose on Days 2, 3, and 7."}, "[5]": {"test_system": "patients with relapsing multiple sclerosis (MS)", "test": "long-term extension of the study (up to 36 months, FTY720 once-daily)", "description": "All patients who subsequently opted to enter a long-term extension of the study received FTY720 once-daily for up to 38 months."}, "[6]": {"details": "after 36 months of continuous treatment"}}}
{"compound": "CCCCCCCCc1ccc(CCC(N)(CO)CO)cc1", "note": "[FTY720, 2-amino-2-[2-(4-octylphenyl)ethyl]propane-1,3-diol]", "values": [{"measurement": "reduction of annualized relapse rate (ARR) versus placebo", "setting": "[1]", "result": "> 50", "unit": "%"}, {"measurement": "reduction of cumulative number of gadolinium-enhancing (Gd+) lesions versus placebo", "setting": "[1]", "result": "up to 80%"}, {"measurement": "HAQUAMS mean total score", "setting": "[2]; M6, oral 1.25 mg", "result": 1.9}, {"measurement": "HAQUAMS total score, mean change from baseline", "setting": "[2]; M6, oral 1.25 mg", "result": "−0.02"}, {"measurement": "HAQUAMS mean total score", "setting": "[2]; M6, oral 5 mg", "result": 1.9}, {"measurement": "HAQUAMS total score, mean change from baseline", "setting": "[2]; M6, oral 5 mg", "result": "−0.01"}, {"measurement": "HAQUAMS fatigue/thinking domain, change", "setting": "[2]; baseline to M6, oral 1.25 mg (placebo +0.14; p=0.030)", "result": "−0.05"}, {"measurement": "total HAQUAMS scores", "setting": "[2]; through M24", "result": "Stable"}, {"measurement": "lymphocyte count nadir", "setting": "[3]; adolescents, single dose", "result": "0.37±0.17 ×10^9/L"}, {"measurement": "time of lymphocyte nadir (median)", "setting": "[3]; adolescents, single dose", "result": 2, "unit": "days postdose"}, {"measurement": "decrease of mean lymphocyte counts from predose", "setting": "[3]; adolescents, single dose, predose count 2.64±1.04×10^9/L", "result": 85, "unit": "%"}, {"measurement": "lymphocyte count recovery", "setting": "[3]; by end-of-study visit on day 28", "result": "back to baseline"}, {"measurement": "tolerability", "setting": "[3]; single dose 0.07 mg/kg oral solution, adolescents", "result": "well tolerated"}, {"measurement": "tolerability of treatment initiation", "setting": "[4]", "result": "well tolerated"}, {"measurement": "safety profile", "setting": "[5]; 1.25 mg dose", "result": "good safety profile"}, {"measurement": "clinical and MRI activity", "setting": "[5]; after 3 years of follow-up, continuous oral 1.25 mg or 5.0 mg dose", "result": "persistent inhibition of clinical and MRI activity"}, {"measurement": "ARR", "setting": "[5]; [6]", "result": "0.20-0.21"}, {"measurement": "patients remained relapse-free", "setting": "[5]; [6]", "result": "68-73%"}, {"measurement": "patients free from 6-month sustained disability progression", "setting": "[5]; month 36", "result": "76-80%"}, {"measurement": "patients free from Gd+ lesions", "setting": "[5]; month 36, each group", "result": "88-89%"}, {"measurement": "patients free from new T2 lesions", "setting": "[5]; month 36, each group", "result": "70-78%"}, {"measurement": "discontinuation rate", "setting": "[5]; months 12-24 of extension", "result": 17.2, "unit": "%"}, {"measurement": "diarrhea reported", "setting": "[5]; months 24-36", "result": 2.7, "unit": "%"}, {"measurement": "dyspnea reported", "setting": "[5]; months 24-36", "result": 1.1, "unit": "%"}, {"measurement": "nausea reported", "setting": "[5]; months 24-36", "result": 2.1, "unit": "%"}, {"measurement": "discontinuation rate", "setting": "[5]; months 24-36 of extension", "result": 6.0, "unit": "%"}]}
